Test results as given in patent publication US20230201185A1, “TREATMENT OF TYPE 2 DIABETES OR OBESITY OR OVERWEIGHT WITH 2-[(4-{6-[(4-CYANO-2-FLUOROBENZYL)OXY]PYRIDIN-2-YL}PIPERIDIN-1-YL)METHYL]-1-[(2S)-OXETAN-2-YLMETHYL]-1H-BENZIMIDAZOLE-6-CARBOXYLIC ACID OR A PHARMACEUTICALLY SALT THEREOF” (Pfizer Inc., priority 2020, published 2023).
Like-named read-outs stand apart in the source and are kept apart here.

How the values were obtained:
Type in all cases: in vivo, human
[1] = system: participants with type 2 diabetes mellitus (T2DM); experiment: Clinical dose guiding study: 24-hour mean daily glucose (MDG); conditions: Day 28; for Mean Daily Glucose, Mean CFB: oral, on metformin
Text: (§1) This study was a randomized, double-blind (sponsor-open), parallel, placebo-controlled, multiple oral dose-escalating study of Compound 1 (in the form of its tris salt) in participants with type 2 diabetes mellitus (T2DM) on a background of metformin monotherapy.
(§2) A total of 98 participants received oral doses of Compound 1 (in the form of its tris salt) or matching placebo for 28 days, in this study. A total of approximately 12 participants were enrolled in each cohort with a randomization ration of 3:1 (9 active and 3 placebo), and 8 cohorts were enrolled in the study. Participants were admitted to the clinical research unit (CRU) on or before Day −2 and were discharged following completion of all assessments on Day 30, at principal investigator discretion. For individual participants, the total duration of participation from the Screening visit to the on-site Follow-up visit was approximately 15 weeks. A Follow-up visit and a Follow-up contact (which have been conducted by phone call) occurred 35-42 days and 56-63 days following the first dose of investigational product on Day 1, respectively. Participants who discontinued prior to completion of the study might have been replaced, at the discretion of the principal investigator and Sponsor. 92 participants completed the inpatient study.
(§3) The planned titration schemes and dosing paradigms for all Cohorts are listed in Table 2-1. • QD: once daily • BID: twice daily
(§4) Diagnosis and Main Criteria for Inclusion: The population for this study was female participants of non-childbearing potential and/or male participants with T2DM, with an HbA1c […], who were taking metformin as their only anti-hyperglycemic treatment, and who were between 18 and 70 years with T2DM at the time of consent and Screening, with a body mass index (BMI) of 24.5 to 45.4 kg/m^2 and a total body weight >50 kg (110 lb). Metformin dose was required to be 500 mg per day and was required to be stable, for at least 2 months prior to the Screening visit and was administered in the CRU according to patient's baseline dosing regimen.
(§5) Study Treatment: Compound 1 (in the form of its tris salt) was supplied as 1 mg, 10 mg, 50 mg and 100 mg immediate release (IR) tablets or 50 mg controlled release (CR) tablets (see Examples 1 and 2) for oral administration. Matching placebo tablets (2:1, Microcrystalline Cellulose: Lactose) were also provided.
(§6) Measurements of fasting plasma glucose (FPG), 24-hour mean daily glucose (MDG), HbA1C, and body weight at baseline (at Day −1) and at Day 28 (shown as change from baselin) are shown in Tables 2-2 to 2-5.
(§7) Baseline was defined as the measurement (MDG, FPG, HbA1c, or body weight) on Day −1. Randomized treatment represented the target dose at Day 28.
Observed data presented. Mean Daily Glucose (MDG) was defined as AUC24/24.

[2] = system: participants with type 2 diabetes mellitus (T2DM); experiment: Clinical dose guiding study: fasting plasma glucose (FPG); conditions: Day 28, oral, on metformin
Text: as §1, §2, §3, §4, §5, §6, §7

[3] = system: participants with type 2 diabetes mellitus (T2DM); experiment: Clinical dose guiding study: HbA1c; conditions: Day 28, oral, on metformin
Text: as §1, §2, §3, §4, §5, §6, §7

[4] = Clinical dose guiding study: body weight; conditions: Day 28, oral, T2DM on metformin
Text: as §1, §2, §3, §4, §5, §6, §7

[5] = Clinical dose guiding study: plasma pharmacokinetics and urinary recovery; conditions: for Tmax: read-out: median Tmax and Tmax1
Text: as §1, §2, §5

[6] = system: participants with type 2 diabetes mellitus (T2DM); experiment: Clinical dose guiding study: adverse events (TEAEs); conditions: for number of all causality TEAEs (events) / number of all causality TEAEs: 28 days
Text: as §1, §2, §5

[7] = system: participants with type 2 diabetes mellitus (T2DM); experiment: Clinical dose guiding study: ECG; conditions: planned treatment groups; self-limited
Text: as §1
as §2, with “inpatient study. […]” for “inpatient study.”

N#Cc1ccc(COc2cccc(C3CCN(Cc4nc5ccc(C(=O)O)cc5n4C[C@@H]4CCO4)CC3)n2)c(F)c1 [1,3-dihydroxy-2-(hydroxymethyl)propan-2-aminium 2-[(4-{6-[(4-cyano-2-fluorobenzyl)oxy]pyridin-2-yl}piperidin-1-yl)methyl]-1-[(2S)-oxetan-2-ylmethyl]-1H-benzimidazole-6-carboxylate]
Mean Daily Glucose, Mean CFB ([1]; 10 mg BID, baseline 189.9): -53.3 mg/dL
Mean Daily Glucose, Mean CFB ([1]; 15 mg BID, baseline 225.4): -85.9 mg/dL
Mean Daily Glucose, Mean CFB ([1]; 50 mg BID, baseline 190.2): -48.7 mg/dL
Mean Daily Glucose, Mean CFB ([1]; 70 mg BID, baseline 218.5): -101.6 mg/dL
Mean Daily Glucose, Mean CFB ([1]; 120 mg BID Slow Titration, baseline 179.9): -68.6 mg/dL
Mean Daily Glucose, Mean CFB ([1]; 120 mg BID, baseline 219.0): -105.9 mg/dL
Mean Daily Glucose, Mean CFB ([1]; 120 mg QD, baseline 188.8): -70.9 mg/dL
Mean Daily Glucose, Mean CFB ([1]; 200 mg QD Controlled Release, baseline 225.2): -102.8 mg/dL
reductions in FPG, MDG, HbA1c, and body weight ([1]; increasing efficacy at higher doses of 70 mg to 120 mg twice daily): robust reductions
Fasting Plasma Glucose, Mean CFB ([2]; 10 mg BID, baseline 158.3): -34.3 mg/dL
Fasting Plasma Glucose, Mean CFB ([2]; 15 mg BID, baseline 198.4): -66.6 mg/dL
Fasting Plasma Glucose, Mean CFB ([2]; 50 mg BID, baseline 168.1): -34.5 mg/dL
Fasting Plasma Glucose, Mean CFB ([2]; 70 mg BID, baseline 186.3): -80.6 mg/dL
Fasting Plasma Glucose, Mean CFB ([2]; 120 mg BID Slow Titration, baseline 176.3): -75.1 mg/dL
Fasting Plasma Glucose, Mean CFB ([2]; 120 mg BID, baseline 196.9): -89.7 mg/dL
Fasting Plasma Glucose, Mean CFB ([2]; 120 mg QD, baseline 179.9): -48.3 mg/dL
Fasting Plasma Glucose, Mean CFB ([2]; 200 mg QD Controlled Release, baseline 195.3): -77.3 mg/dL
HbA1c, Mean CFB ([3]; 10 mg BID, baseline 8.2): −0.8%
HbA1c, Mean CFB ([3]; 15 mg BID, baseline 8.6): −0.9%
HbA1c, Mean CFB ([3]; 50 mg BID, baseline 8.3): −1.2%
HbA1c, Mean CFB ([3]; 70 mg BID, baseline 8.3): −1.2%
HbA1c, Mean CFB ([3]; 120 mg BID Slow Titration, baseline 8.2): −1.2%
HbA1c, Mean CFB ([3]; 120 mg BID, baseline 8.5): −1.2%
HbA1c, Mean CFB ([3]; 120 mg QD, baseline 8.2): −1.0%
HbA1c, Mean CFB ([3]; 200 mg QD Controlled Release, baseline 8.6): −1.1%
Body Weight, Mean CFB ([4]; 10 mg BID, baseline 99.90): -2.8 kg
Body Weight, Mean CFB ([4]; 15mg BID, baseline 93.60): -2.4 kg
Body Weight, Mean CFB ([4]; 50 mg BID, baseline 88.24): -2.4 kg
Body Weight, Mean CFB ([4]; 70 mg BID, baseline 86.08): -4.0 kg
Body Weight, Mean CFB ([4]; 120 mg BID Slow Titration, baseline 88.01): -5.5 kg
Body Weight, Mean CFB ([4]; 120 mg BID, baseline 101.34): -7.9 kg
Body Weight, Mean CFB ([4]; 120 mg QD, baseline 84.88): -4.3 kg
Body Weight, Mean CFB ([4]; 200 mg QD Controlled Release, baseline 92.29): -3.1 kg
dose proportionality of exposure (dose normalized mean AUC24) ([5]; Day 1, BID and QD treatments, IR formulation): approximately dose proportional
dose proportionality of AUC24 and Cmax ([5]; Day 28, BID IR formulation cohorts): approximately dose-proportional
Tmax ([5]; human, plasma, Day 1, single oral dose, IR formulation, QD and BID regimens): 2 to 4 h
incidence of all causalities TEAEs in Gastrointestinal Disorders category ([6]; 10 mg BID group (placebo 52.0%)): 33.3%
number of all causality TEAEs (events) ([6]; 10 mg BID group): 8 events
number of all causality TEAEs (events) ([6]; 15 mg BID group): 16 events
participants discontinued from the study due to treatment-related TEAEs ([6]; 15 mg BID group, moderate TEAE of headache): 1 participant
participants with dose reduction or temporary discontinuation due to TEAEs ([6]; 50 mg BID group): 4 participants
number of all causality TEAEs ([6]; 50 mg BID group): 45
participants discontinued from the study due to treatment-related TEAEs ([6]; 50 mg BID group, moderate decreased appetite, nausea, vomiting and mild fatigue): 1 participant
number of all causality TEAEs ([6]; 70 mg BID group): 31
participants with dose reduction or temporary discontinuation due to TEAEs ([6]; 120 mg BID Slow titration group): 2 participants
participants with dose reduction or temporary discontinuation due to TEAEs ([6]; 120 mg BID group): 1 participants
number of all causality TEAEs ([6]; 120 mg BID group): 43
participants with mild hypoglycemia ([6]; 120 mg BID group, after missing a meal or snack, self-limited, treatment-related): 1 participant
severe TEAEs ([6]; 120 mg BID slow titration group, 1 treatment-related, 1 not): 2
number of all causality TEAEs (events) ([6]; 120 mg BID slow titration group): 50 events
SAE ([6]; 120 mg BID slow titration group, not treatment-related): 1
number of all causality TEAEs ([6]; 120 mg QD group): 35
participants with dose reduction or temporary discontinuation due to TEAEs ([6]; 200 mg QD CR group): 1 participants
number of all causality TEAEs ([6]; 200 mg QD CR group): 47
adverse trends in safety laboratory tests, vital signs or ECG parameters with increasing dose ([6]; ascending, multiple, oral doses): no clinically significant adverse trends
overall safety and tolerability ([6]; ascending, multiple, oral doses, adult participants with T2DM): generally safe and well-tolerated
participants with post-baseline ECG meeting criteria of QTcF interval >450 and ≤80 or change from baseline >30 and ≤60 [7]: 3 participants

N#Cc1ccc(COc2cccc(C3CCN(Cc4nc5ccc(C(=O)O)cc5n4C[C@@H]4CCO4)CC3)n2)c(F)c1 [Compound 1, 2-[(4-{6-[(4-Cyano-2-fluorobenzyl)oxy]pyridin-2-yl}piperidin-1-yl)methyl]-1-[(2S)-oxetan-2-ylmethyl]-1H-benzimidazole-6-carboxylic acid]
Urinary recovery, dose recovered unchanged in urine ([5]; Day 28): < 0.1 % of the dose
Tmax ([5]; human, plasma, oral, Day 28, BID and QD IR treatments): 3 to 10 h
half-life ([5]; human, plasma, oral, across all treatments, read-out: Mean t % (terminal half life)): 4.7 to 8.1 h
